SMILES strings stand for the structures. Numbered stars: 1 amine (or outer) side, 2 acyl side, 3 side chain; on linkers, the order of the positions; unused ones are H or OH. Bridge positions count the residues as written; N and C are the ends. Peptide text beside a SMILES is read from it. TBMB = c1c(C[*:1])cc(C[*:3])cc1C[*:2]

The target in this assay is T1, human urokinase-type plasminogen activator (huPA) (Homo sapiens, UniProt P00749).
T1 construct: (UPA-LMW, Molecular Innovations, Novi, MI, USA) 1.5 nM; purchased Molecular Innovations UPA-LMW
The experiment in a line: huPA inhibition, fluorogenic enzyme activity assay (Z-Gly-Gly-Arg-AMC), Ki by Cheng-Prusoff. Particulars: 25 °C, pH 7.4, substrate 50 μM, mean ± S.E. of at least three measurements, read-out: Ki. It is filed as biochemical. Here is the method: bicyclic peptides. The activity assay was performed by incubating […] huPA with 50 μM fluorogenic substrate Z-Gly-Gly-Arg-AMC (50 μM; Bachem, Bubendorf, Switzerland) and […]
NaCl, 10 mM MgCl2, 1mM CaCl2, 0.1% w/v BSA, 0.01% v/v Triton-X100 and 5% v/v DMSO.
The measurements were performed on a Tecan microplate reader (Tecan infinite 200 pro, Tecan Trading AG, Switzerland) using black microfluor 96-well plate Nunc MicroWell, (Thermo Fisher Scientific, Dreieich, Germany) The enzymatic reactions were performed at 25 °C for 30 min, under shacking with an excitation wavelength of 355 nm and an emission recording at 460 nm. The initial velocities were monitored as changes in fluorescence intensity. The sigmoidal curves were fitted to the data using the following non-linear regression equation for the inhibitory dose-response curves with variable slope (2): […]
where x is the peptide concentration, y is the residual percentage of protease activity and p is the hill slope. Half maximum inhibitory concentration (IC50) values were derived from the fitted curves from GraphPad Prism 8 8.0.0. software (GraphPad software, Inc., San Diego, California). The final Ki was subsequently determined using the Cheng-Prusoff equation (3): […]
where Km (115 μM) is the Michaelis constant for the hydrolysis of Z-Gly-Gly-Arg-AMC catalysed by huPA which has been determined by standard Michaelis-Menten equation.
Values were determined using either OriginPro 8G software (OriginLab Corporation, Northamppton, MA, USA) or GraphPad Prism 8.0.0. software (GraphPad software, Inc., San […]
Recombinant production of the catalytic domain of human urokinase-type […]
The low molecular weight (LMW) human urokinase-type plasminogen activator (huPA) comprising the truncated 23 amino acid peptide fragment of chain A (Lys136-Lys158 in […]
As usually defined, the Ki is a measure of affinity in units of concentration, obtained from inhibition or displacement. Consider `CC(C)[C@@H]1NC(=O)[C@H](Cc2c[nH]c3ccccc23)NC(=O)[C@H](CCCNC(=N)N)NC(=O)[C@H](CO)NC(=O)[C@@H](NC(=O)[C@H](C)N)CSCc2cc3cc(c2)CSC[C@@H](C(=O)NCC(N)=O)NC(=O)[C@@H]2CCCN2C(=O)CNC(=O)CNC(=O)[C@H](CCCNC(=N)N)NC(=O)CNC(=O)[C@H](CCCNC(=N)N)NC(=O)[C@H](CSC3)NC(=O)[C@H](CC(=O)O)NC(=O)[C@H]([C@@H](C)O)NC1=O` [UK972] (H-ACSRWVTDCRGRGGPCG-NH2; linker 2-9-16 via TBMB), for which the Ki stood at 14.8 nM.

For the compound `CC(C)[C@@H]1NC(=O)[C@H](Cc2ccccc2)NC(=O)[C@H](CCCNC(=N)N)NC(=O)[C@H](CO)NC(=O)[C@@H](NC(=O)[C@H](C)N)CSCc2cc3cc(c2)CSC[C@@H](C(=O)NCC(N)=O)NC(=O)[C@@H]2CCCN2C(=O)CNC(=O)CNC(=O)[C@H](CCCNC(=N)N)NC(=O)CNC(=O)[C@H](CCCNC(=N)N)NC(=O)[C@H](CSC3)NC(=O)[C@H](CC(=O)O)NC(=O)[C@H]([C@@H](C)O)NC1=O` [UK973] (H-ACSRFVTDCRGRGGPCG-NH2; linker 2-9-16 via TBMB), the inhibitory constant (Ki) came to 15.3 nM.

Consider `CC(C)[C@@H]1NC(=O)CNC(=O)[C@@H]2CSCc3cc(cc(c3)CSC[C@@H](C(=O)NCC(N)=O)NC(=O)[C@H](CO)NC(=O)CNC(=O)[C@@H]3CCCN3C(=O)[C@H](CC(=O)O)NC1=O)CSC[C@H](NC(=O)[C@H](C)N)C(=O)N[C@@H](CC(N)=O)C(=O)N[C@@H](CO)C(=O)N[C@@H](CCCCN)C(=O)N[C@@H](Cc1ccccc1)C(=O)N[C@@H](CO)C(=O)NCC(=O)N2` [UK974] (H-ACNSKFSGCGVDPGSCG-NH2; linker 2-9-16 via TBMB), for which the Ki is 363 nM.

On to `CC(C)[C@@H]1NC(=O)CNC(=O)[C@@H]2CSCc3cc(cc(c3)CSC[C@@H](C(=O)NCC(N)=O)NC(=O)[C@H](CC(=O)O)NC(=O)CNC(=O)[C@@H]3CCCN3C(=O)[C@H](CC(=O)O)NC1=O)CSC[C@H](NC(=O)[C@H](C)N)C(=O)N[C@@H](CC(N)=O)C(=O)N[C@@H](CO)C(=O)N[C@@H](CCCCN)C(=O)N[C@@H](Cc1ccccc1)C(=O)N[C@@H](CO)C(=O)NCC(=O)N2` [UK975] (H-ACNSKFSGCGVDPGDCG-NH2; linker 2-9-16 via TBMB), for which the inhibition constant (Ki) is 874 nM.

With `CC(C)[C@@H]1NC(=O)CNC(=O)[C@@H]2CSCc3cc(cc(c3)CSC[C@@H](C(=O)NCC(N)=O)NC(=O)[C@H](CC(=O)O)NC(=O)[C@H](CO)NC(=O)[C@@H]3CCCN3C(=O)[C@H](CC(=O)O)NC1=O)CSC[C@H](NC(=O)[C@H](C)N)C(=O)N[C@@H](CC(N)=O)C(=O)N[C@@H](CO)C(=O)N[C@@H](CCCCN)C(=O)N[C@@H](Cc1ccccc1)C(=O)N[C@@H](CO)C(=O)NCC(=O)N2` [UK976] (H-ACNSKFSGCGVDPSDCG-NH2; linker 2-9-16 via TBMB), the inhibition constant Ki was determined as 119 ± 0.9 nM.

As for `CC(C)[C@@H]1NC(=O)CNC(=O)[C@@H]2CSCc3cc(cc(c3)CSC[C@@H](C(=O)NCC(N)=O)NC(=O)[C@H](CCC(=O)O)NC(=O)CNC(=O)[C@@H]3CCCN3C(=O)[C@H](CC(=O)O)NC1=O)CSC[C@H](NC(=O)[C@H](C)N)C(=O)N[C@@H](CC(N)=O)C(=O)N[C@@H](CO)C(=O)N[C@@H](CCCCN)C(=O)N[C@@H](Cc1ccccc1)C(=O)N[C@@H](CO)C(=O)NCC(=O)N2` [UK977] (H-ACNSKFSGCGVDPGECG-NH2; linker 2-9-16 via TBMB), the Ki stood at 157 ± 1.1 nM.

The values above are taken from paper PMC11672547, “Combination of Coevolutionary Information and Supervised Learning Enables Generation of Cyclic Peptide Inhibitors with Enhanced Potency from a Small Data Set” (ACS Central Science, 2024).
